Earlier results in patent publication US9828413B2, “Vancomycin derivative, and preparation method and application thereof” (ACESYS PHARMA INC., priority 2013, dated 2017).

Details: data from US2010/045201; cited from earlier work

For Oritavancin, the Solubility in water is listed as less than 0.1 mg/mL.
